Data reported in US12102607B2, “C5aR inhibitors for use in the treatment of chemotherapy-induced iatrogenic pain” (Dompe' Farmaceutici S.P.A., priority 2017, dated 2024).

What was measured:
[1] = system: DRG neurons; assay: Cells number of DRG neurons (immunofluorescence, image analysis); type: cell-based; conditions: for % of cell number: relative to UT
Description: (§1) Dorsal Root Ganglion neurons were obtained by dissociation of post natal (P2) Sprague Dawley rat ganglia (Envigo, Bresso Italy), following well-defined protocols (O'Meara et al, 2011; Owen et al, 2012). To minimize introduction of contaminating cells into the culture, any excessively long roots were trimmed from DRGs. After the isolation, DRGs were enzymatically dissociated as follows: • 20 minutes of 1.5 mg/ml papain exposure at 37° C., • 30 minutes of 4 mg/ml collagenase exposure at 37° C.
(§2) Subsequently, cells were mechanically dissociated with a fire polished glass Pasteur pipette, in order to obtain a single cell suspension.
(§3) Once dissociation was achieved, cells were seeded onto 96 black multiwell plates coated with Laminin (10 ug/mL, overnight at Room Temperature, RT) at selected densities. Following 1 week of incubation in DMEM high glucose medium supplemented with 10% FBS, 1× N2, 1× B27, 100 IU/mI penicillin, […] streptomycin, cells were treated according to experimental needs.
(§4) Alpha Tubulin Acetylation DRG-derived neurons were cultured for 7 days and then treated with:
(§5) • paclitaxel (200 nM, 500 nM, 1 μM and 5 μM, 20 μM) in presence or absence of DF3966Y (0.1, 1 and 10 μM) or DF2593A (0.1, 1 and 10 μM) • or C5a (500 ng/ml and 1 μg/ml) in presence or absence of DF3966Y (1 μM)
(§6) After 24 hr of treatment, cells were stained by immunofluorescence.
(§7) Cells were fixed with saccharose-paraformaldehyde then staining was performed overnight. Primary antibodies (anti—Ill Tubulin and anti-synaptotagmin 1) were diluted 1:500 in 1×PBS-4% BSA-2% Normal goat serum and 0.3% Triton x-100. The next day, cells were washed with 1×PBS-4% BSA and secondary antibodies were used diluted 1:500 in 1×PBS-4% BSA-2% Normal goat serum and 0.3% Triton x-100. After 1 hr of incubation, cells were washed with 1×PBS. Hoechst was used as a counterstain.
(§8) Sixteen images per well were taken with ArrayScan XTI HCA Reader (Thermo Fisher Scientific) with and 40× objective. All the analysis were done with HCS Studio software
(§9) Cells number, synapse number and dentritic arborization were evaluated in untreated cells and in cells stimulated with paclitaxel and C5a alone or in presence of the drug. As marker of chemotherapy-induced toxicity, the total number of synapses on DRG neurons was quantitative evaluated as percentage of the number of synapse with respect to untreated (UT) control.
(§10) Data are obtained as the sum of the values obtained by the analysis of sixteen fields per well for each experiment. Percentage of the values in respect to the relative mean untreated group was calculated. Mean of the percentages from 4 separate experiments was plotted in the following Tables 2-7.

[2] = system: DRG neurons; assay: Electrophysiological recordings (whole-cell patch-clamp, current-clamp) of DRG-derived neurons; type: cell-based, Sprague Dawley rat
Description: as §1
Dorsal Root Gangliar (DRG)-derived neurons were cultured for 7 days and then treated in blind with the following combinations: 10 nM Paclitaxel, 10 nM Paclitaxel+1 μM DF3966Y, 1 μg/ml C5a, 1 μg/ml C5a+1 μM DF3966Y.
The compounds were administered for 1 min 30 sec (short acute stimulation) or 5 minutes (long chronic stimulation). The application of the compounds was followed by a wash-out in the physiological control solution for an equivalent time (about 10 min).
Electrophysiological recordings were performed by the patch-clamp technique in the whole-cell configuration. The standard extracellr solution was bath applied and contained the following (mM): NaCl 135, KCl 2, CaCl2 2, MgCl2 2, hepes 10, glucose 5, pH 7.4. The standard pipet solution contained the following (mM): potassium aspartate 130, NaCl 10, MgCl2 2, CaCl2 1.3, EGTA 10, Hepes 10, pH 7.3. Recordings were acquired by the pClamp8.2 software and the MultiClamp 700A amplifier (Axon Instruments), in current-clamp mode.

[3] = system: acetylated α-Tubulin; assay: In-cell western analysis of acetylated α-Tubulin in DRG neurons; type: cell-based, Sprague Dawley rat; conditions: for Acetylated α-Tubulin (% of UT): DRG neurons
Description: as §1, §2, §3
Dorsal Root Ganglion neurons isolated as previously reported were subjected to the following experimental challenge scheme as depicted in FIG. 10.
Paclitaxel, C5a and drugs were administered 24 hr prior the in-cell western experiment. Following 24 hr of treatment with appropriate stimuli as previously indicated, cells were washed with 1×PBS and fixed with 3,7% formaldehyde for 15 min. After the removal of fixing solution, cells were washed with 1×PBS and permeabilized with 1×PBS-0,1% Triton X-100 for 5 min at RT. Cells were then stained over night at 4° C. with the anti-acetylated α-Tubulin antibody, diluted 1:500 in Odyssey Blocking buffer, following manufacturer's protocol.
The next day, cells were washed with 1×PBS-0.1% Tween20, and stained with the secondary antibody (diluted 1:800 in Odyssey Blocking buffer, as recommended by the protocol) and with the CellTag 700Stain […]. To lower the background, Tween20 at a final concentration of 0.2% was added to the Odyssey Blocking buffer. 96-well plates were then read at Odyssey CLx Imaging system and images acquired. Data analysis was carried out by the use of Image Studio 2.1 software.
Paclitaxel was given to the DRG neurons following 7 days of culture at the concentration of 200 nM (Scuteri et al. 2006).
Effect of DF3966Y in C5α-induced neuronal toxicity In order to determine whether the observed effects may be triggered also by C5a, recombinant mouse C5a 1 μg/ml (111.11 nM) was given to the DRG neurons after 7 days of culture in presence or absence of DF3966Y 1 μM.
After 24 hr of incubation, acetylated α-Tubulin was quantified using in-cell western technique, as previously described.

[4] = system: DRG neurons; assay: Dendritic tree area of DRG neurons (image analysis); type: cell-based, Sprague Dawley rat; conditions: for % dendritic tree area: relative to UT
Description: as §1, §2, §3, §4, §5, §6, §7, §8
Dendritic arborization directly influences synaptic genesis and input. A well-developed arborization indicates a functional synaptic network. For this reason, the area occupied by dendritic arborization has been quantified.
as §10

[5] = system: DRG neurons; assay: Synapse number on DRG neurons (synaptotagmin staining, image analysis); type: cell-based, Sprague Dawley rat; conditions: for % of synapse number: relative to UT
Description: as §1, §2, §3, §4, §5, §6, §7, §8
For synapse count a threshold has been set, in particular all the objects, positive to synaptotagmin staining, in the range 0.365-2.457 μm^2 have been considered as synapses.
as §9, §10

SMILES: C[C@H](c1ccc(Nc2nc(C(F)(F)F)cs2)cc1)c1nnn[nH]1 [DF3966Y, 1-N-[4-[(1R)-1-(1H-tetrazol-5-yl)ethyl]phenyl}-4-(trifluoromethyl)-11,3-thiazol-2-amine]
- % of cell number ([1]; DF3966Y 1 μM + C5a (Table 3)): 96.65 ± 10.77%
- % of cell number ([1]; DF3966Y 1 μM + PAC (Table 2)): 98.83 ± 12.49%
- % of cell number ([1]; DF3966Y 1 μM alone (Table 2)): 101.55 ± 10.59%
- % of cell number ([1]; DF3966Y 1 μM alone (Table 3)): 96.96 ± 6.45%
- effect on cell number ([1]; DF3966Y administered alone or with PAC): did not exert any significant effect on cell number
- alteration of electrical activity under Paclitaxel plus drug ([2]; 10 nM Paclitaxel + 1 μM DF3966Y, first immediate phase and longer time of exposure): no significant alteration of electrical activity
- inhibition of electrical activity under C5a plus drug, longer time of exposure ([2]; 1 μg/ml C5a + 1 μM DF3966Y, longer time of exposure (3-5 minutes)): about 35%
- alteration of electrical activity under C5a plus drug, short time points ([2]; 1 μg/ml C5a + 1 μM DF3966Y, short time points): no significant alteration of the electrical activity
- levels of acetylated α-Tubulin under C5a plus drug ([3]; DF3966Y 1 μM + C5a 1 μg/ml, 24 hr): significantly reduced the challenge induced by C5a exposure
- Acetylated α-Tubulin (% of UT) ([3]; drug 0.1 μM under Paclitaxel 200 nM, 24 hr): 76.45 % of UT
- Acetylated α-Tubulin (% of UT) ([3]; drug 1 μM under Paclitaxel 200 nM, 24 hr): 65.16 % of UT
- Acetylated α-Tubulin (% of UT) ([3]; drug 10 μM under Paclitaxel 200 nM, 24 hr): 89.05 % of UT
- reversal of Paclitaxel-induced increase in acetylated α-Tubulin ([3]; drug 0.1, 1, 10 μM, Paclitaxel 200 nM): significantly reverted the Paclitaxel-induced challenge
- % dendritic tree area ([4]; DF3966Y 1 μM + C5a (Table 7)): 106.45 ± 9.43%
- % dendritic tree area ([4]; DF3966Y 1 μM + PAC (Table 6)): 101.21 ± 7.97%
- effect on paclitaxel-induced decrease of dendritic arborization area ([4]; DF3966Y 1 μM + paclitaxel): seems to counteract such a decrease
- % dendritic tree area ([4]; DF3966Y 1 μM alone (Table 6)): 103.07 ± 8.17%
- % dendritic tree area ([4]; DF3966Y 1 μM alone (Table 7)): 103.07 ± 8.17%
- % of synapse number ([5]; DF3966Y 1 μM + C5a (Table 5)): 111.33 ± 9.27%
- % of synapse number ([5]; DF3966Y 1 μM + PAC (Table 4)): 92.04 ± 21.01%
- effect on Paclitaxel-induced decrease in synapse number ([5]; DF3966Y 1 μM + paclitaxel): significantly counteracted Paclitaxel-induced effect
- % of synapse number ([5]; DF3966Y 1 μM alone (Table 4)): 99.89 ± 12.94%
- % of synapse number ([5]; DF3966Y 1 μM alone (Table 5)): 99.89 ± 12.94%

SMILES: CC(=O)O[C@H]1C(=O)[C@@]2(C)[C@H]([C@H](OC(=O)c3ccccc3)[C@]3(O)C[C@H](OC(=O)[C@H](O)[C@@H](NC(=O)c4ccccc4)c4ccccc4)C(C)=C1C3(C)C)[C@]1(OC(C)=O)CO[C@@H]1C[C@@H]2O [Paclitaxel, reference compound]
- effect on cell number ([1]; Paclitaxel alone): slight decrease in cell number
- % of cell number ([1]; Paclitaxel alone (Table 2)): 88.87 ± 6.04%
- action potential firing rate vs CTRL, immediate ([2]; 10 nM Paclitaxel alone, immediate phase): +54.64%
- electrical activity vs CTRL, longer times of exposure ([2]; 10 nM Paclitaxel alone, longer times of exposure): −83.51%
- change in acetylated α-Tubulin with respect to control (UT) cells ([3]; Paclitaxel 200 nM alone): marginal yet significant increase
- Acetylated α-Tubulin (% of UT) ([3]; Paclitaxel 200 nM alone, 24 hr): 111.41 % of UT
- % dendritic tree area ([4]; PAC alone (Table 6)): 92.22 ± 3.47%
- area occupied by dendritic arborization ([4]; Paclitaxel alone): non-significant decrease
- % of synapse number ([5]; PAC alone (Table 4)): 88.02 ± 2.99%
- effect on synapse number ([5]; Paclitaxel alone): marked decrease in synapse number
